Test results published in US6503938B1, “2-phenylindoles as antiestrogenic pharmaceutical agents” (Schering Aktiengesellschaft, priority 1994, dated 2003).
One block for each compound: values may come before it.

Legend:
[1] = tested on: hormone-sensitive human MCF-7 breast cancer cells; assay: Cytostatic activity on hormone-sensitive human MCF-7 breast cancer cells (T/C of optical densities); format: cell-based; conditions: mean of 16 determinations ± SD
[2] = target: T1, estrogen receptor consisting of calf uterus cytosol (Bos taurus, UniProt P49884); assay: Relative binding affinity (RBA) for the estrogen receptor, displacement of 3H-17β-estradiol; conditions: RBA(17β-estradiol) = 100
T1 construct: for the estrogen receptor consisting of calf uteri; from tissue; host or cells: calf uterus
T1 sequence (P49884 1-596): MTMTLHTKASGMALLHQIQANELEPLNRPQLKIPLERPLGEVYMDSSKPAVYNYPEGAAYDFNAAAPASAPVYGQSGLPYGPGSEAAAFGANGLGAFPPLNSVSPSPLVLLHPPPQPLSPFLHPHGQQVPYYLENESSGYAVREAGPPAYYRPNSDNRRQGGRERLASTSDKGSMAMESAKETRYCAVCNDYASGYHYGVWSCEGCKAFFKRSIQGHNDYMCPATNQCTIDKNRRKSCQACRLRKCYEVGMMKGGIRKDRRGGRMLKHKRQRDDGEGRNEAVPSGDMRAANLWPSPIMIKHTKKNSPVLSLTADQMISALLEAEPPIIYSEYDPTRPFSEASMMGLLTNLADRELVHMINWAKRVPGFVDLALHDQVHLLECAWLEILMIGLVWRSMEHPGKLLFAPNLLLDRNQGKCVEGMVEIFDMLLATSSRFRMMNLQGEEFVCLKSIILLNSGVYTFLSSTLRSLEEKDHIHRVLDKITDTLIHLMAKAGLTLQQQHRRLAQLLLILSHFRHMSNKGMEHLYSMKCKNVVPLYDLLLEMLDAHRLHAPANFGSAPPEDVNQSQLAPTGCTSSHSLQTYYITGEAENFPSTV

uterus of infantile mice = assay: Uterus weight test in infantile mice (estrogenic and antiestrogenic action); format: in vivo; conditions: for estrogenic action on the uterus of infantile mice: s.c. in olive oil on three successive days, uterus dry weight/body weight 24 hours after the last injection
Protocol: Compound no. […] For compounds nos. […] The dose/animal was administered s.c., dissolved in olive oil, on three successive days. The dry weight of the uterus [mg]/body weight [g]×100 was determined 24 hours after the last injection. This test is described in detail in Cancer Treatment Reviews, 1984, 11, 147 and J. Med. Chem., 1984, 27, 1439.

[3] = substance concentration 1 · 10^−6 M in the incubation medium
[4] = substance concentration 1 · 10^−7 M in the incubation medium
[5] = substance concentration 1 · 10^−8 M in the incubation medium
[6] = substance concentration 1 · 10^−9 M in the incubation medium

RBA(*) relative binding affinity for the estrogen receptor [2]: 2.6
Compound: CCCCN(C)S(=O)(=O)CCCCCCCCCCn1c(-c2ccc(O)cc2)c(C)c2cc(O)ccc21 [Compound 10, 1-[10-(n-butyl-methylsulfamoyl)-decyl]-5-hydroxy-(4-hydroxyphenyl)-3-methylindole]
T/C [%] [1, 3]: −12.3 ± 6.3%
T/C [%] [1, 4]: −13.4 ± 4.5%
T/C [%] [1, 5]: 0.5 ± 6.3%
T/C [%] [1, 6]: 86.3 ± 18.0%

RBA(*) relative binding affinity for the estrogen receptor [2]: 1.0
Compound: Cc1c(-c2ccc(O)cc2)n(CCCCCCCCCCCN(C)S(=O)(=O)Cc2ccccc2)c2ccc(O)cc12 [Compound 9, 5-hydroxy-2-(4-hydroxyphenyl)-3-methyl-1-[11-(N-methyl-phenylmethanesulfonamido)-undecyl]-indole]

RBA(*) relative binding affinity for the estrogen receptor [2]: 2.4
Compound: Cc1c(-c2ccc(O)cc2)n(CCCCCCCCC[S+]([O-])CCCC(F)(F)C(F)(F)F)c2ccc(O)cc12 (stereo not shown) [Compound 11, 5-hydroxy-2-(4-hydroxyphenyl)-3-methyl-1-[9-(4,4,5,5,5-pentafluoropentylsulfinyl)-nonyl]-indole]
estrogenic action on the uterus of infantile mice (uterus of infantile mice): virtually identical results

RBA(*) relative binding affinity for the estrogen receptor [2]: 1.8
Compound: CCCS(=O)(=O)N(C)CCCCCCCCCCCn1c(-c2ccc(O)cc2)c(C)c2cc(O)ccc21 [Compound 8, 5-hydroxy-2-(4-hydroxyphenyl)-3-methyl-1-[11-(N-methyl-propylsulfonamido)-undecyl]-indole]

RBA(*) relative binding affinity for the estrogen receptor [2]: 1.4
melting point: 56 to 60 °C
Compound: Cc1c(-c2ccc(O)cc2)n(CCCCCCCCSc2ccccn2)c2ccc(O)cc12 [Compound 6, 5-hydroxy-2-(4-hydroxyphenyl)-3-methyl-1-[8-(2-pyridinylthio)-octyl]-indole]

melting point: 88 °C
Compound: CNC(=O)CCCCCCCCCCn1c(-c2ccc(OC)cc2)c(C)c2cc(OC)ccc21 [Example 7, 5-Methoxy-2-(4-methoxyphenyl)-3-methyl-1-[10-(N-methylcarbamoyl)-decyl]-indole]

RBA(*) relative binding affinity for the estrogen receptor [2]: 1.0
Compound: Cc1c(-c2ccc(O)cc2)n(CCCCCCCCCS(=O)(=O)CCCC(F)(F)C(F)(F)F)c2ccc(O)cc12 [Compound 12, 5-hydroxy-2-(4-hydroxyphenyl)-3-methyl-1-[9-(4,4,5,5,5-pentafluoropentylsulfonyl)-nonyl]-indole]

RBA(*) relative binding affinity for the estrogen receptor [2]: 1.3
Compound: CCCCN(C)C(=O)CCCSCCCCCCn1c(-c2ccc(O)cc2)c(C)c2cc(O)ccc21 [Compound 13, 1-{6-[3′-(n-butyl-methylcarbamoyl)-propylthio]-hexyl}-5-hydroxy-2-(4-hydroxyphenyl)-3-methylindole]
T/C [%] [1, 3]: 15.8 ± 6.9%
T/C [%] [1, 4]: 40.2 ± 11.4%
T/C [%] [1, 5]: 92.9 ± 15.2%
T/C [%] [1, 6]: 85.6 ± 16.0%

RBA(*) relative binding affinity for the estrogen receptor [2]: 1.7
Compound: Cc1c(-c2ccc(O)cc2)n(CCCCCCCCCCSCC(=O)N(C)C(C)C)c2ccc(O)cc12 [Compound 14, 5-hydroxy-2-(4-hydroxyphenyl)-3-methyl-1-[10-[(methyl-iso-propylcarbamoyl)-methylthio]-decyl]-indole]

RBA(*) relative binding affinity for the estrogen receptor [2]: 2.9
Compound: CCC[S+]([O-])CCCCCCCCCCCCn1c(-c2ccc(O)cc2)c(C)c2cc(O)ccc21 (stereo not shown) [Compound 5, 5-hydroxy-2-(4-hydroxyphenyl)-3-methyl-1-[12-(propylsulfinyl)-dodecyl]-indole]

melting point: 75 to 77 °C
Compound: COc1ccc(-c2c(C)c3cc(OC)ccc3n2CCCCCCCCSc2ccccn2)cc1 [Example 6, 5-Methoxy-2-(4-methoxyphenyl)-3-methyl-1-[8-(2-pyridinylthio)-octyl]-indole]

More lines, now with the values behind:

Compound: CCCCCSCCCCCCCCCCn1c2c(c3cc(O)ccc31)CCc1cc(O)ccc1-2 [Compound 16, 6,11-dihydro-3,8-dihydroxy-5H-1-[10-(pentylthio)-decyl]benzo[a]carbazole]
T/C [%] ([1]; substance concentration 1 · 10^−5 M in the incubation medium): −38.6 ±13.9%
T/C [%] [1, 3]: −7.8 ± 8.9%
T/C [%] [1, 4]: −18.5 ± 15.4%
T/C [%] ([1]; substance concentration 6 · 10^−6 M in the incubation medium): −31.1 ± 10.0%
RBA(*) relative binding affinity for the estrogen receptor [2]: 0.13

Compound: 5-hydroxy-2-(4-hydroxyphenyl)-3-methyl-1-[12-[2-(N-methyl-imidazolyl)thio]-decyl]-indole [Compound 7]
T/C [%] [1, 3]: 36.8 ± 8.7%
T/C [%] [1, 4]: 60.4 ± 9.1%
T/C [%] [1, 5]: 83.8 ± 11.3%
RBA(*) relative binding affinity for the estrogen receptor [2]: 2.0

Compound: CCCCCSCCCCCCCCCCn1c(-c2ccc(O)cc2)c(C)c2cc(O)ccc21 [Compound 1, 5-Hydroxy-2-(4-hydroxyphenyl)-3-methyl-1-[10-(pentylthio)-decyl]-indole]
RBA(*) relative binding affinity for the estrogen receptor [2]: 0.3

Compound: CCCS(=O)(=O)CCCCCCCCCCCCn1c(-c2ccc(O)cc2)c(C)c2cc(O)ccc21 [Compound 4, 5-hydroxy-2-(4-hydroxyphenyl)-3-methyl-1-[12-(propylsulfonyl)-dodecyl]-indole]
RBA(*) relative binding affinity for the estrogen receptor [2]: 1.9

Compound: CCCCCS(=O)(=O)CCCCCCCCCCn1c(-c2ccc(O)cc2)c(C)c2cc(O)ccc21 [Compound 3, 5-Hydroxy-2-(4-hydroxyphenyl)-3-methyl-1-[10-(pentylsulfonyl)-decyl]-indole]
action of estrogen (0.4 μg/animal) on the uterus (antiestrogenic effect) (uterus of infantile mice; 10 mg/kg s.c., three successive days, with estrogen 0.4 μg/animal): completely cancelled out
dry weight of the uterus compared to control level (uterus of infantile mice; dose of 35 mg/kg s.c., three successive days): still lies below the control level
estrogenic action on the uterus of infantile mice (uterus of infantile mice): does not show any estrogenic action

Compound: CCCCCS(=O)(=O)CCCCOc1ccc(Cn2c(-c3ccc(O)cc3)c(C)c3cc(O)ccc32)cc1 [Compound 15, 5-hydroxy-2-(4-hydroxyphenyl)-3-methyl-1-[4-[4-(pentylsulfonyl)butoxy]-benzyl]-indole]
RBA(*) relative binding affinity for the estrogen receptor [2]: 9.5

Compound: CCCCC[S+]([O-])CCCCCCCCCCn1c(-c2ccc(O)cc2)c(C)c2cc(O)ccc21 (stereo not shown) [Compound 2, 5-Hydroxy-2-(4-hydroxyphenyl)-3-methyl-1-[10-(pentylsulfinyl)-decyl]-indole]
RBA(*) relative binding affinity for the estrogen receptor [2]: 3.4
